For one assay, the target named is T1, human DP2 receptor (Homo sapiens, UniProt Q9Y5Y4).
T1 construct: expressed in transfected cells
T1 sequence (Q9Y5Y4 1-395): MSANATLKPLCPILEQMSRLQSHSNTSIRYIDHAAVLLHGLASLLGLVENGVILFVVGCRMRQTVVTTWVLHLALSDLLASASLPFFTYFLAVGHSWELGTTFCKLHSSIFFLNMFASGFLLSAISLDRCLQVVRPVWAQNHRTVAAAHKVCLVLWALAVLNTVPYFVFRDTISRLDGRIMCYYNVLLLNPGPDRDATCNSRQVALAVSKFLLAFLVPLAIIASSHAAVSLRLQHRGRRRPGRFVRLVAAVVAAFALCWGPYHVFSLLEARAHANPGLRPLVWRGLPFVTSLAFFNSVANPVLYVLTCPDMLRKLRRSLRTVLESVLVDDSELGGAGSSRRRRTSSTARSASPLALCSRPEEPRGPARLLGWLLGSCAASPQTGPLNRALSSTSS
Description: DP2/CRTH2 radioligand binding assay using [3H]PGD2. As to conditions: [3H]PGD2 binding, membranes of HEK293 cells expressing recombinant human DP2; read-out: hDP2. In a few lines: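 HEK293 membranes with stable recombinant human DP2, incubated with 1 nM [3H]PGD2 and compound 60 min at room temperature in pH 7.4 HEPES/MnCl2/EDTA buffer, with or without 0.2% human serum albumin.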

The target of a further assay is T2, human DP1 receptor (Homo sapiens, UniProt Q13258).
T2 construct: tissue Biological Specialty Corporation; host or cells: human platelets, membranes
T2 sequence (Q13258 1-359): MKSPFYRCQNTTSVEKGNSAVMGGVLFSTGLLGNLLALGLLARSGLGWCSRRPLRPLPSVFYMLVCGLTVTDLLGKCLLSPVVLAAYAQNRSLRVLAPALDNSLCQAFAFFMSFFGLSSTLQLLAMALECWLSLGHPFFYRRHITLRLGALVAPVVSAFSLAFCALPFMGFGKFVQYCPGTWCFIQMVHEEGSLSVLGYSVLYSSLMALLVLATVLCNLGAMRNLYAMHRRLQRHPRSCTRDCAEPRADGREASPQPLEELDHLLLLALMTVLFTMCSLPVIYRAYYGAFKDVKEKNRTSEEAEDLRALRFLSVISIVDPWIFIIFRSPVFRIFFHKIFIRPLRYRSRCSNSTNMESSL
In words: DP1 radioligand membrane binding assay using [3H]BWA868C. As to conditions: [3H]BWA868C binding, human platelet membranes; read-out: hDP1.

The target of assay [1] is T3, recombinant human CRTH2 receptor (Homo sapiens, UniProt Q9Y5Y4).
T3 construct: expressed in transfected cells
T3 sequence (Q9Y5Y4 1-395): T1 sequence (Q9Y5Y4 1-395)
Description: GTPγS binding assay. The class given is biochemical. The following applies: +HSA; CHO cell membranes, 80 nM PGD2; read-out: hDP2 GTPγS μM (+HSA). How it is done: The ability of a compound to inhibit binding of GTP to DP2 is assessed via a membrane GTPγS assay. CHO cells stably expressing the recombinant human CRTH2 receptor are resuspended in 10 mM Hepes, 7.4 containing 1 mM DTT, lysed and centrifuged at 75,000×g to pellet the membranes. The membranes are resuspended in 10 mM Hepes, 7.4 containing 1 mM DTT and 10% glycerol. […] The reactions are terminated by rapid filtration through Whatman GF/B glass fibre filter plates. The filter plates are washed 3 times with 1 ml cold Assay Buffer and dried. Scintillant is then added to the plates and the radioactivity retained on the filters is determined on a Packard TopCount (Perkin Elmer). Specific binding is determined as total radioactive binding minus non-specific binding in the absence of the ligand (80 nM PGD2). IC50s were determined using Graphpad prism analysis of drug titration curves.

pIC50: −log10 of the molar value. Bounds are passed on as bounds.

Regarding `COc1ccc(CC(=O)O)cc1-c1ccc(C(F)(F)F)cc1CN(CC(F)(F)F)C(C)=O` [Compound 1-4, (2′-{[Acetyl-(2,2,2-trifluoro-ethyl)-amino]-methyl}-6-methoxy-4′-trifluoromethyl-biphenyl-3-yl)-acetic acid], the values for the pIC50 on human DP2 receptor and at human DP1 receptor were more than 6.52 and less than 6.00, respectively. Besides, the IC50 in assay [1] was less than 0.3 µM.
On to `COc1ccc(CC(=O)O)cc1-c1ccc(C(F)(F)F)cc1CN(C(C)=O)C1CCCC1` [Compound 1-31, {2′-[(Acetyl-cyclopentyl-amino)-methyl]-6-methoxy-4′-trifluoromethyl-biphenyl-3-yl}-acetic acid], for which the figures for the pIC50 on human DP2 receptor and at human DP1 receptor were more than 6.52 and less than 6.00, respectively. In assay [1], the IC50 is less than 0.3 µM.
Regarding `CCOc1ccc(CC(=O)O)cc1-c1ccc(C(F)(F)F)cc1CN(CC)C(=O)OCc1ccccc1` [Compound 1-129], the figures for the pIC50 on human DP2 receptor and on human DP1 receptor were more than 6.52 and less than 6.00, respectively. Moreover, the IC50 in assay [1] was less than 0.3 µM.
As to `CCN(Cc1cc(C(F)(F)F)ccc1-c1cc(CC(=O)O)ccc1OC)C(=O)COCc1ccccc1` [Compound 1-92, (2′-{[(2-Benzyloxy-acetyl)-ethyl-amino]-methyl}-6-methoxy-4′-trifluoromethyl-biphenyl-3-yl)-acetic acid], the pIC50 on human DP2 receptor was more than 6.52; on human DP1 receptor, less than 6.00. In assay [1], the IC50 was less than 0.3 µM.
For `CCN(Cc1cc(C(F)(F)F)ccc1-c1cc(CC(=O)O)ccc1OC)C(=O)OCc1ccccc1Cl` [Compound 1-39, (2′-{[(2-Chloro-benzyloxycarbonyl)-ethyl-amino]-methyl}-6-methoxy-4′-trifluoromethyl-biphenyl-3-yl)-acetic acid] the same measures were more than 6.52, less than 6.00 and less than 0.3 µM.
Turning to `CCN(Cc1cc(C(F)(F)F)ccc1-c1cc(CC(=O)O)ccc1OC)C(C)=O` [Compound 1-2, {2′-[(Acetyl-ethyl-amino)-methyl]-6-methoxy-4′-trifluoromethyl-biphenyl-3-yl}-acetic acid], the figures for the pIC50 on human DP2 receptor and on human DP1 receptor were more than 6.52 and less than 6.00, respectively. Also, the IC50 in assay [1] was less than 0.3 µM.
Regarding `COc1ccc(CC(=O)O)cc1-c1ccc(C(F)(F)F)cc1CN(C(C)=O)C1CCC1` [Compound 1-30, {2′-[(Acetyl-cyclobutyl-amino)-methyl]-6-methoxy-4′-trifluoromethyl-biphenyl-3-yl}-acetic acid], the pIC50 on human DP2 receptor is more than 6.52; at human DP1 receptor it was less than 6.00. The IC50 in assay [1] was less than 0.3 µM.
As for `CCN(Cc1cc(C(F)(F)F)ccc1-c1cc(CC(=O)O)ccc1F)C(C)=O` [Compound 1-10, {2′-[(Acetyl-ethyl-amino)-methyl]-6-fluoro-4′-trifluoromethyl-biphenyl-3-yl}-acetic acid], the pIC50 was more than 6.52 at human DP2 receptor and less than 6.00 at human DP1 receptor. Besides, the IC50 in assay [1] was less than 0.3 µM.
For `COc1ccc(CC(=O)O)cc1-c1ccc(C(F)(F)F)cc1CN(C)C(C)=O` [Compound 1-1, {2′-[(Acetyl-methyl-amino)-methyl]-6-methoxy-4′-trifluoromethyl-biphenyl-3-yl}-acetic acid], the figures for the pIC50 at human DP2 receptor and on human DP1 receptor were more than 6.52 and less than 6.00, respectively. The IC50 in assay [1] was less than 0.3 µM.
`CCN(Cc1cc(C(F)(F)F)ccc1-c1cc(CC(=O)O)ccc1OC)C(=O)C(F)(F)F` [Compound 1-32, (2′-{[Ethyl-(2,2,2-trifluoro-acetyl)-amino]-methyl}-6-methoxy-4′-trifluoromethyl-biphenyl-3-yl)-acetic acid]: the pIC50 was more than 6.52 on human DP2 receptor and less than 6.00 on human DP1 receptor. Also, the IC50 in assay [1] is less than 0.3 µM.
As to `CCN(Cc1cc(C(F)(F)F)ccc1-c1cc(CC(=O)O)ccc1OC)C(=O)OC(C)c1ccc(Cl)cc1` (stereo not drawn) [Compound 1-44, [2′-({[1-(4-Chloro-phenyl)-ethoxycarbonyl]-ethyl-amino)-methyl)-6-methoxy4′-trifluoromethyl-biphenyl-3-yl]-acetic acid], the pIC50 is more than 6.52 at human DP2 receptor and less than 6.00 at human DP1 receptor. For the same compound, the IC50 in assay [1] is less than 0.3 µM.

These data come from US20110098352A1, “N,N-DISUBSTITUTED AMINOALKYLBIPHENYL ANTAGONISTS OF PROSTAGLANDIN D2 RECEPTORS” (AMIRA PHARMACEUTICALS, INC., priority 2008, published 2011).
